# PubChem BioAssay (NCI)
# Where “and” joins values, the source holds several entries; their conditions need not be identical. Equal entries are not always repeated.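 Protocol summary: plate cells (96-well), add compound at 5 concentrations, incubate 48 h, interpolate endpoints linearly. GI50: concentration for 50% inhibition of growth. TGI: concentration producing complete growth inhibition.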
# Key:
# Experiment in all cases: growth of human tumour cells (NCI), 48 h
# UACC-257 melanoma = tested on: UACC-257 melanoma
# BT-549 breast = tested on: BT-549 breast
# DU-145 prostate = tested on: DU-145 prostate
# HS 578T breast = tested on: HS 578T breast
# M14 melanoma = tested on: M14 melanoma
# HT29 colon = tested on: HT29 colon
# KM12 colon = tested on: KM12 colon
# TK-10 renal = tested on: TK-10 renal
SMILES,GI50 (UACC-257 melanoma),TGI (UACC-257 melanoma),TGI (BT-549 breast),GI50 (DU-145 prostate),TGI (DU-145 prostate),GI50 (HS 578T breast),TGI (HS 578T breast),GI50 (M14 melanoma),TGI (M14 melanoma),GI50 (HT29 colon),TGI (HT29 colon),GI50 (KM12 colon),TGI (KM12 colon),GI50 (TK-10 renal),TGI (TK-10 renal),GI50 (BT-549 breast)
CC(=O)NC(CS)C(=O)O (configuration not stated),> 100 µM,> 100 µM,> 100 µM,> 100 µM,> 100 µM,> 100 µM,> 100 µM and 87200 µM,> 100 µM,> 100 µM and 35500 µM,> 100 µM,> 100 µM and 86700 µM,> 100 µM,> 100 µM and 98100 µM,> 100 µM,> 100 µM and 76500 µM,
CCNC(=O)Oc1ccc(/C(=C(\C)c2ccc(Cl)cc2)c2ccc(OCCN(CC)CC)cc2)cc1,2.11 µM,4.36 µM,18.5 µM,11.1 µM,24.2 µM,3.72 µM,16.5 µM,1.97 µM,3.97 µM,2.52 µM,6.44 µM,4.22 µM,15.5 µM,17 µM,31.8 µM,5.33 µM
COc1cc(-c2cc(-c3cccs3)c(C#N)c(N3CCOCC3)n2)cc(OC)c1OC,3.22 µM,9.9 µM,> 100 µM,13.7 µM,> 100 µM,7.27 µM,> 100 µM,,,3.16 µM,> 100 µM,6.02 µM,> 100 µM,> 39 µM,> 94.1 µM,8.22 µM
CC(=O)OC1CC2C(C)(C)CCC[C@]2(C)C2=C1C(O)=C(C(C)C)C(=O)C2=O (some centres not stated),0.932 µM,3 µM,3.34 µM,0.867 µM,2.28 µM,0.532 µM,> 20.4 µM,0.442 µM,1.83 µM,,,0.644 µM,2.15 µM,1.43 µM,12.8 µM,1.16 µM
CS(=O)(=O)O[C@H]1C(=O)N(c2cc3c4ccccc4ccc3c3ccccc23)[C@@H]1c1ccccn1,16.9 µM,> 100 µM,9.79 µM,0.416 µM,> 100 µM,0.428 µM,> 100 µM,0.317 µM,5.23 µM,,,0.473 µM,> 100 µM,0.996 µM,> 100 µM,0.501 µM
CC(=O)N(C)c1cc(NCc2ccccc2)ccc1OCc1ccccc1,,31.1 µM,40.3 µM,,32.7 µM,,91 µM,,50.5 µM,,43 µM,,47.4 µM,,33.5 µM,
C=C1C[C@@H](O)[C@@H](Br)C(C)(C)[C@]12CCC(C)(Br)C(Cl)C2 (some centres not stated),18.6 µM,> 50 µM and 34.2 µM,> 50 µM and 38.3 µM,18.7 µM,> 50 µM and 36 µM,29.9 µM,> 50 µM and 96.4 µM,17.9 µM,> 50 µM and 34.6 µM,1.95 µM,50 µM and 16.4 µM,0.28 µM,16.7 µM and 10.5 µM,15.7 µM,> 50 µM and 29.8 µM,18.9 µM
C=C[C@H]1CN2CCc3c([nH]c4c([C@@H]5CCCN5C)c(O)ccc34)[C@@H]2C[C@@H]1C[C@H]1c2[nH]c3ccccc3c2CCN1C,,,3.27 µM and 2.96 µM,,2.88 µM and 3.16 µM,,3.04 µM and 3.39 µM,1.25 µM and 0.211 µM,2.75 µM and 0.436 µM and 2.55 µM,,3.21 µM and 2.95 µM,1.15 µM,2.61 µM and 2.99 µM,0.031 µM,0.993 µM and 2.98 µM and 3.44 µM,
